Among the test systems are BT-549 breast; CAKI-1 renal; CCRF-CEM leukemia; COLO 205 colon; HOP-62 NSCLC; IGROV1 ovarian; M14 melanoma; MDA-MB-435; MDA-N; MOLT-4 leukemia; OVCAR-5 ovarian; RPMI-8226 leukemia; T-47D breast; TK-10 renal; U251 CNS; UACC-257 melanoma; HOP-92 NSCLC; NCI-H522 lung; OVCAR-4 ovarian.
Assay in all cases: NCI tumour cell line growth inhibition, 48 h

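Where inhibition never reached the appropriate level, the endpoint shown equals the highest concentration tested. Otherwise, values were interpolated linearly from a five-concentration, 48-hour dose response in 96-well plates. GI50 marks 50% less growth. TGI: total growth inhibition.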

`COc1cc(C2OC(N)=C(C#N)C3=C2C(C)CCC3)cc(OC)c1OC` (configuration not stated): the TGI in the experiment with BT-549 breast is over 100 µM; with CAKI-1 renal, over 100 µM; in the experiment with CCRF-CEM leukemia, over 100 µM; in the experiment with COLO 205 colon, over 100 µM; with HOP-62 NSCLC, 40.7 µM; with IGROV1 ovarian, over 100 µM. The TGI with M14 melanoma, with MDA-MB-435, in the experiment with MDA-N, in the experiment on MOLT-4 leukemia, in the experiment with OVCAR-5 ovarian and with RPMI-8226 leukemia was over 100 µM throughout. Also, the TGI in the experiment on T-47D breast, with TK-10 renal, in the experiment with U251 CNS and in the experiment on UACC-257 melanoma was over 100 µM in each case.

On to `CC(C)(C)C1CCC2c3c([nH]c4ccccc34)C3C(=O)N(c4ccccc4Cl)C(=O)C3C2C1` (configuration not stated), for which the TGI was 61.6 µM in the experiment with BT-549 breast; 37.1 µM in the experiment on CAKI-1 renal; over 100 µM with CCRF-CEM leukemia; 32.5 µM with HOP-62 NSCLC; 0.739 µM in the experiment with HOP-92 NSCLC; over 100 µM with IGROV1 ovarian. In addition, the TGI with M14 melanoma is 45.7 µM; with MDA-MB-435, over 100 µM; in the experiment with MDA-N, 29.3 µM; with MOLT-4 leukemia, over 100 µM; with RPMI-8226 leukemia it was over 100 µM; in the experiment on TK-10 renal it was 51.3 µM. Further, the TGI is 50.6 µM with U251 CNS and over 100 µM with UACC-257 melanoma.

In the case of `CC[C@]12C=CCN3CCC4(c5cc([C@@]6(C(=O)OC)CC7CN(CCc8c6[nH]c6ccccc86)C[C@@H]6CCCC[C@H]76)c(OC)cc5N(C)C4[C@](O)(C(=O)OC)C1OC(C)=O)[C@@H]32` (some centres not stated), the TGI in the experiment on BT-549 breast was 21.2 µM; in the experiment with CAKI-1 renal, 16.7 µM; with CCRF-CEM leukemia, over 37.1 µM; in the experiment with COLO 205 colon, under 0.01 µM; in the experiment on HOP-62 NSCLC, 14.4 µM; in the experiment with HOP-92 NSCLC it was 16.9 µM. Further, the TGI is 3.14 µM in the experiment with M14 melanoma; under 0.01 µM in the experiment with MDA-N; over 100 µM in the experiment with MOLT-4 leukemia; under 0.01 µM in the experiment on NCI-H522 lung; 19.3 µM in the experiment on OVCAR-4 ovarian; 8.83 µM in the experiment with OVCAR-5 ovarian. Moreover, the TGI in the experiment on RPMI-8226 leukemia is 32.1 µM; with T-47D breast, 38.5 µM; with TK-10 renal, 21.8 µM; in the experiment on U251 CNS it was under 0.01 µM. In addition, the GI50 with HOP-92 NSCLC is 0.0672 µM.

On to `CCOC(=O)CC[C@H](NC(=O)N[C@H](C)c1ccccc1)C(=O)OCC`, for which the TGI with BT-549 breast was over 100 µM; with CAKI-1 renal, over 100 µM; with CCRF-CEM leukemia, 54.2 µM; in the experiment on COLO 205 colon, 32.7 µM; with HOP-62 NSCLC, over 100 µM; in the experiment on HOP-92 NSCLC it was 39.3 µM. For the same molecule, the TGI is over 100 µM with IGROV1 ovarian; 28.2 µM in the experiment on M14 melanoma; 69.1 µM with MDA-MB-435; 38.2 µM with MDA-N; 52.5 µM with MOLT-4 leukemia; over 100 µM in the experiment with OVCAR-4 ovarian. In addition, the TGI was over 100 µM in the experiment on OVCAR-5 ovarian; over 100 µM in the experiment on RPMI-8226 leukemia; over 100 µM in the experiment on TK-10 renal; over 100 µM in the experiment on U251 CNS; 46.6 µM with UACC-257 melanoma.

As to `O=C(NCCC1CN(C(=O)OCc2ccccc2)c2ccccc21)OCc1ccccc1` (configuration not stated), the TGI with BT-549 breast, in the experiment on CAKI-1 renal, in the experiment with COLO 205 colon, with HOP-62 NSCLC, in the experiment on HOP-92 NSCLC and with IGROV1 ovarian was over 100 µM in each case. Also, the TGI in the experiment on M14 melanoma, in the experiment with MDA-MB-435, with MDA-N, in the experiment with MOLT-4 leukemia, in the experiment on NCI-H522 lung and in the experiment with OVCAR-4 ovarian was over 100 µM each time. In addition, the TGI in the experiment with OVCAR-5 ovarian, in the experiment on RPMI-8226 leukemia, with TK-10 renal, with U251 CNS and in the experiment with UACC-257 melanoma was over 100 µM in each case.

Turning to `CC(C)(Oc1ccc(Cl)cc1)C(=O)N(C(=O)N1CCCCC1)c1ccccc1`, the TGI in the experiment on BT-549 breast is 30.4 µM; in the experiment with CAKI-1 renal, 29.9 µM; in the experiment with CCRF-CEM leukemia, over 100 µM; with COLO 205 colon, over 100 µM; with IGROV1 ovarian, 22.3 µM; in the experiment on M14 melanoma, 52.1 µM. Further, the TGI is over 100 µM in the experiment with MDA-MB-435; over 100 µM in the experiment on MDA-N; 84.8 µM with MOLT-4 leukemia; 36.7 µM with OVCAR-5 ovarian; over 100 µM in the experiment with RPMI-8226 leukemia; 9.68 µM in the experiment with T-47D breast. For the same molecule, the TGI in the experiment on U251 CNS is 39.2 µM.

Turning to `CC(C)(C)C1CCC2c3c([nH]c4ccccc34)C3C(=O)N(c4ccccc4[N+](=O)[O-])C(=O)C3C2C1` (configuration not stated), the TGI with BT-549 breast came to 68.5 µM; in the experiment on CAKI-1 renal it was 32.4 µM; in the experiment with CCRF-CEM leukemia, 53.1 µM; in the experiment on COLO 205 colon it was 24.1 µM; with HOP-62 NSCLC, 21.5 µM; with HOP-92 NSCLC, 9.1 µM. Further, the TGI is 76 µM with IGROV1 ovarian; 33.8 µM with M14 melanoma; over 100 µM in the experiment with MDA-MB-435; 43.9 µM with MDA-N; 50.5 µM in the experiment with OVCAR-5 ovarian; over 100 µM in the experiment with RPMI-8226 leukemia. Moreover, the TGI stood at 43.3 µM in the experiment with TK-10 renal, 40.3 µM in the experiment on U251 CNS and 90.6 µM in the experiment with UACC-257 melanoma.

With `Cc1cc(=O)oc2c(CNC(CO)C(=O)O)c(O)ccc12` (configuration not stated), the TGI with CAKI-1 renal, with CCRF-CEM leukemia, in the experiment on COLO 205 colon, in the experiment with HOP-62 NSCLC, in the experiment on HOP-92 NSCLC and with IGROV1 ovarian was over 100 µM each time. In addition, the TGI with M14 melanoma, in the experiment on MDA-MB-435, in the experiment on MDA-N, in the experiment on MOLT-4 leukemia, with NCI-H522 lung and in the experiment on OVCAR-4 ovarian was over 100 µM throughout. Also, the TGI with OVCAR-5 ovarian, in the experiment with RPMI-8226 leukemia, in the experiment with T-47D breast, in the experiment on TK-10 renal, with U251 CNS and with UACC-257 melanoma was over 100 µM each time.

These data come from PubChem BioAssay (NCI).
